Results published in patent publication US20050227961A1, “Compositions and methods for treatment of neuropathic pain, fibromyalgia and chronic fatigue syndrome” (Vela Pharmaceuticals, Inc., priority 2004, published 2005).

Tested on: lesioned hindpaw of rats suffering from neuropathic pain
Assay: Neuropathic pain, thermal stimulation model in the rat (Chung spinal nerve ligature), paw withdrawal latency
Settings: for Paw Withdrawal Latent (seconds) for Lesioned Paw, mean ± SEM / Paw withdrawal latency, % change compared with vehicle control: thermal stimulation

Which results are given for `CN1c2ccccc2C(NCCCCCCC(=O)O)c2ccc(Cl)cc2S1(=O)=O` (stereo not drawn) [Tianeptine, 7-[(3-chloro-6,11-dihydro-6-methyl-dibenzo[c,f][1,2]thiazepin-11-yl)amino]heptanoic acid S,S-dioxide]?
Paw Withdrawal Latent (seconds) for Lesioned Paw, mean ± SEM (3 mg/kg p.o., at 30 min): 12.7 ± 4.9 s; Paw withdrawal latency, % change compared with vehicle control (3 mg/kg p.o., at 30 min): +10%; Paw Withdrawal Latent (seconds) for Lesioned Paw, mean ± SEM (3 mg/kg p.o., at 1 h): 20.3 ± 5.3 s; Paw withdrawal latency, % change compared with vehicle control (3 mg/kg p.o., at 1 h): +43%; Paw Withdrawal Latent (seconds) for Lesioned Paw, mean ± SEM (3 mg/kg p.o., at 2 h): 20.6 ± 6.3 s; Paw withdrawal latency, % change compared with vehicle control (3 mg/kg p.o., at 2 h): +15%; Paw Withdrawal Latent (seconds) for Lesioned Paw, mean ± SEM (3 mg/kg p.o., at 4 h): 13.8 ± 4.4 s; Paw withdrawal latency, % change compared with vehicle control (3 mg/kg p.o., at 4 h): −30%; Paw Withdrawal Latent (seconds) for Lesioned Paw, mean ± SEM (10 mg/kg p.o., at 30 min): 19.2 ± 6.0 s; Paw withdrawal latency, % change compared with vehicle control (10 mg/kg p.o., at 30 min): +67%; Paw Withdrawal Latent (seconds) for Lesioned Paw, mean ± SEM (10 mg/kg p.o., at 1 h): 15.1 ± 4.5 s; Paw withdrawal latency, % change compared with vehicle control (10 mg/kg p.o., at 1 h): +6%; Paw Withdrawal Latent (seconds) for Lesioned Paw, mean ± SEM (10 mg/kg p.o., at 2 h): 16.1 ± 5.1 s; Paw withdrawal latency, % change compared with vehicle control (10 mg/kg p.o., at 2 h): −10%; Paw Withdrawal Latent (seconds) for Lesioned Paw, mean ± SEM (10 mg/kg p.o., at 4 h): 26.1 ± 5.4 s; Paw withdrawal latency, % change compared with vehicle control (10 mg/kg p.o., at 4 h): +32%; Paw Withdrawal Latent (seconds) for Lesioned Paw, mean ± SEM (30 mg/kg p.o., at 30 min): 33.3 ± 5.5 s; Paw withdrawal latency, % change compared with vehicle control (30 mg/kg p.o., at 30 min): +190%; Paw Withdrawal Latent (seconds) for Lesioned Paw, mean ± SEM (30 mg/kg p.o., at 1 h): 29.0 ± 7.3 s; Paw withdrawal latency, % change compared with vehicle control (30 mg/kg p.o., at 1 h): +104%; Paw Withdrawal Latent (seconds) for Lesioned Paw, mean ± SEM (30 mg/kg p.o., at 2 h): 16.9 ± 5.0 s; Paw withdrawal latency, % change compared with vehicle control (30 mg/kg p.o., at 2 h): −6%; Paw Withdrawal Latent (seconds) for Lesioned Paw, mean ± SEM (30 mg/kg p.o., at 4 h): 19.3 ± 5.8 s; Paw withdrawal latency, % change compared with vehicle control (30 mg/kg p.o., at 4 h): −2%; paw withdrawal latency after thermal stimulation in the lesioned paw (result in words) (30 mg/kg, at 30 minutes): significant increase

Which “Paw Withdrawal Latent (seconds) for Lesioned Paw, mean ± SEM” value (shortened to “Paw Withdrawal Latent … mean ± SEM”) (128 mg/kg p.o., at 30 min) does the source give for `CN1CC[C@]23c4c5ccc(O)c4O[C@H]2[C@@H](O)C=C[C@H]3[C@H]1C5` [Morphine] here?
The value was 23.5 ± 6.4 s.

And the “Paw withdrawal latency, % change compared with vehicle control” value (“Paw withdrawal latency, % change” for short) (128 mg/kg p.o., at 30 min)?
The value was “+104%”.

What about the “Paw Withdrawal Latent … mean ± SEM” value (128 mg/kg p.o., at 1 h) of the same compound?
The value was 40.5 ± 3.0 s.

What about the “Paw withdrawal latency, % change” value (128 mg/kg p.o., at 1 h) of the same compound?
The value was “+185%”.

What about the “Paw Withdrawal Latent … mean ± SEM” value (128 mg/kg p.o., at 2 h) of the same compound?
The value was 16.7 ± 6.0 s.

What about the “Paw withdrawal latency, % change” value (128 mg/kg p.o., at 2 h) of the same compound?
The value was −7%.

And the “Paw Withdrawal Latent … mean ± SEM” value (128 mg/kg p.o., at 4 h)?
The value was 21.7 ± 5.7 s.

And the “Paw withdrawal latency, % change” value (128 mg/kg p.o., at 4 h)?
The value was “+10%”.
